Laboratory results published in US20090312406A1, “COUMARIN COMPOUNDS AND THEIR USE FOR TREATING VIRAL INFECTION” (priority 2008, published 2009).
Like-named read-outs stand apart in the source and are kept apart here.

Columns and labels:
[1] = tested on: Influenza A/WSN/33 (H1N1) virus; experiment: In vitro anti-influenza virus assay (neutralization test), cytopathic effect on MDCK cells; type: cell-based
Experimental: (§1) Anti-influenza activities of the coumarin compounds were evaluated by measuring the ability of a test compound to inhibit the cytopathic effect induced by an influenza virus on MDCK cells. The 96-well tissue culture plates were seeded with 200 μL of MDCK cells at a concentration of 1.1×10^5 cells/mL in DMEM with 10% fetal bovine serum (FBS). The plates were incubated for 24-30 h at 37° C. and were used at about 90% confluency. Influenza A/WSN/33 (H1N1) virus (100 TCID50) was added to the cells and incubated at 35° C. for 1 h. After adsorption, the infected cell plates were overlaid with 50 μL of DMEM plus 2% FBS and a test compound with different concentrations. The plate was incubated at 35° C. for 72 h. At the end of incubation, the plates were fixed by the addition of 100 μL of 4% formaldehyde for 1 h at room temperature. After the removal of formaldehyde, the plates were stained with 0.1% crystal violet for 15 min at room temperature. The plates were washed and dried, and the density of the well was measured at 570 nm. The concentration required for a test compound to reduce the virus-induced cytopathic effect (CPE) by 50% relative to the virus control was expressed as IC50.
(§2) Compounds 1 and 95 were also tested on various influenza virus strains. Amantadine or Relenza was also tested for comparison. IC50 is defined as the concentration required for a test compound to reduce the virus-induced cytopathic effect (CPE) by 50% relative to the virus control.

[2] = tested on: herpes simplex virus type 1; experiment: In vitro assessment of anti-HSV activity, plaque reduction assay in Vero cells (Example 8); type: cell-based; details: for SI, selectivity index = CC50/EC50: CC50/EC50, HSV-1; for EC50: Human alphaherpesvirus 1, herpes simplex virus type 1, Vero cells, plaque reduction, 72 h, read-out: EC50 (μM), 50% effective concentration
Experimental: Anti-HSV activities of compounds described herein were evaluated by performing a plaque reduction assay using monolayer cultures of Vero cells in 24-well culture plates. A cell monolayer was infected with herpes simplex virus type 1 (50 pfu/well) and incubated at 37° C. with 5% CO2 for 1 h. The infected cell monolayer was then washed three times with PBS and overlaid with a solution (maintenance medium containing 1% methylcellulose and various concentrations of a test compound). After 72 h of incubation at 37° C., the cell monolayer was fixed with 10% formalin and stained with 1% crystal violet. […] The minimal concentration of a compound required to reduce 50% of plaque numbers (EC50) was calculated by regression analysis of the dose-response curves generated from the plaque assay.

[3] = Cytotoxicity (CC50) of the compounds tested in the anti-HSV assay; type: cell-based; details: African green monkey, Vero cells; Table 5; read-out: CC50 (μM), 50% cytotoxicity concentration
[4] = tested on: HIV-1; experiment: Inhibition of HIV-1 replication in peripheral blood mononuclear cells, viral RNA by real-time PCR; details: Human immunodeficiency virus 1, PBMC
Experimental: Equal amounts of wild-type and mutant viruses were used to infect 5×10^4 peripheral blood mononuclear cells (PBMC) in 1.5 mL medium containing DMSO or various concentrations of a test compound. A half-milliliter of the culture medium was collected from each culture at days 3, 5, and 7. Viral RNA was extracted from the collected culture supernatants and the viral titers (copies/mL) were determined by real-time PCR. The percentage of inhibition was calculated as [100−(VD/VC)]×100%, where VD and VC refer to the virus titers in the presence and absence of the test compound, respectively.

[5] = tested on: Influenza A/TW/785/05 (H1N1); experiment: Anti-influenza CPE neutralization test on MDCK cells; type: cell-based; details: Influenza A virus
Experimental: as §1, §2

[6] = tested on: Influenza A/TW/83/05 (H3N2); experiment: as above; type: cell-based; details: Influenza A virus
Experimental: as §1, §2

[7] = tested on: Influenza A/Udorn/72 (H3N2); experiment: as above; type: cell-based; details: Influenza A virus
Experimental: as §1, §2

[8] = tested on: Influenza B/TW/70325/05; experiment: as above; type: cell-based; details: Influenza B virus, Influenza B/TW/70325/05, CPE
Experimental: as §1, §2

[9] = tested on: Influenza B/TW/710/05; experiment: as above; type: cell-based; details: Influenza B virus, Influenza B/TW/710/05, CPE
Experimental: as §1, §2

[10] = tested on: Influenza B/TW/99/07; experiment: as above; type: cell-based; details: Influenza B virus, Influenza B/TW/99/07, CPE
Experimental: as §1, §2

[11] = tested on: Enterovirus 71 (4643); experiment: In vitro EV 71 neutralization assay, cytopathic effect on RD cells; type: cell-based; details: Enterovirus A
Experimental: (§3) This assay measured the ability of a test compound to inhibit the cytopathic effect induced by a picornavirus (EV71, Coxsackie Virus B3, or human rhinovirus 2) on RD cells. The method used for this assay is described in Chang et al., J Med Chem, 2005, 48(10), 3522-3535. More specifically, 96-well tissue culture plates were seeded with 200 μL of RD cells at a concentration of 3×10^5 cells/mL in DMEM with 10% FBS. The plates were incubated for 24-30 h at 37° C. and were used at about 90% confluency. Virus (100 TCID50) mixed with different concentrations of a test compound was added to the cells and incubated at 37° C. for 1 h. After adsorption, the infected cell plates were overlaid with 50 μL of DMEM plus 5% FBS and 2% DMSO. The plate was wrapped in Parafilm and incubated at 37° C. for 64 h. At the end of incubation, the plates were fixed by the addition of 100 μL of 0.5% glutaraldehyde for 1 h at room temperature. After the removal of glutaraldehyde, the plates were stained with 0.1% crystal violet for 15 min at room temperature. The plates were washed and dried, and the density of the well was measured at 570 nm. The concentration required for a test compound to reduce the virus-induced cytopathic effect (CPE) by 50% relative to the virus control is expressed as IC50.

[12] = tested on: Coxsackie B virus 3; experiment: In vitro Coxsackie Virus B3 neutralization assay, cytopathic effect on RD cells; type: cell-based; details: Coxsackie B virus 3, RD cells, CPE
Experimental: as §3

[13] = tested on: Human rhinovirus 2; experiment: In vitro human rhinovirus 2 neutralization assay, cytopathic effect on RD cells; type: cell-based; details: Rhinovirus A
Experimental: as §3

[14] = tested on: HSV-1; experiment: In vitro HSV-1 plaque reduction assay in Vero cells (Example 5); type: cell-based; details: Human alphaherpesvirus 1; HSV-1, Vero cells, 72 h; read-out: EC50 (concentration reducing 50% of plaque numbers)
Experimental: The method used for this assay is described in Su et al., Antiviral Res., 2008, 79(1), 62-70.
Vero cells were seeded onto a 96-well culture plate at a concentration of 10^4 cells per well one day before infection. Next day, medium was removed and 10 plaque forming unit (pfu) HSV-1 suspension per well were added and incubated at 37° C. with 5% CO2 for 1 h. The infected cell monolayer was then washed with phosphate buffered saline (PBS) and cultured in maintenance medium containing 1 μM of compounds. After 72 h of incubation at 37° C., cell monolayer was fixed with 10% formalin and stained with 1% crystal violet.
Plaque assays were performed with monolayer cultures of Vero cells in 24-well culture plates. For plaque reduction assay, cell monolayer was infected with virus (50 pfu/well) and incubated at 37° C. with 5% CO2 for 1 h. The infected cell monolayer was then washed three times with PBS and overlaid with overlapping solution (maintenance medium containing 1% methylcellulose and various concentrations of indicated compounds). After 72 h of incubation at 37° C., cell monolayer was fixed with 10% formalin and stained with 1% crystal violet. […] The minimal concentration of compounds required to reduce 50% of plaque numbers (EC50) was calculated by regression analysis of the dose-response curves generated from plaque assays.

[15] = tested on: EBV; experiment: In vitro EBV assay, EBV reactivation in NA cells by anti-EBV-EAD immunofluorescence; type: cell-based, Epstein-Barr virus (EBV); details: human gammaherpesvirus 4; EBV reactivation by TPA/SB in NA cells, compound added 24 h before; read-out: EC50 (concentration reducing 50% of virus replication numbers)
Experimental: The method used for this assay is described in Chang et al., J Virol, 1999, 73, 8857-8866 and Tsai et al., J Virol Methods, 1991, 33, 47-52.
To suppress EBV reactivation, a test compound was added to the NA cell culture medium at indicated final concentration 24 h prior to 12-o-tetradecanoylphorbol-13-acetate (TPA)/sodium n-butyrate (SB) treatment. After treatment, the cells were fixed and assayed by anti-EBV-EAD immunofluorescence for detection of EBV reactivation. […] NA cells were subjected to treatment with the test compound 24 h prior to the addition of TPA/SB. […] Cells were stained with anti-EBV EAD antibody. […] The minimal concentration of the test compound required to reduce 50% of virus replication numbers (EC50) was calculated from regression analysis of the dose-response curves obtained from anti-EBV-EAD immunofluorescence.

[16] = tested on: Influenza A/TW/141/04 (H1N1); experiment: Anti-influenza CPE neutralization test on MDCK cells; type: cell-based; details: Influenza A virus
Experimental: as §1, §2

[17] = tested on: Influenza A/TW/3446/04 (H3N2); experiment: as above; type: cell-based; details: Influenza A virus
Experimental: as §1, §2

[18] = MDCK cells, 72 h, lower bound (10 nM), upper in μM, read-out: IC50 (concentration reducing virus-induced cytopathic effect by 50%)
[19] = 72 h, read-out: Inhibition (%) Day 3
[20] = 120 h, read-out: Inhibition (%) Day 5
[21] = 168 h, read-out: Inhibition (%) Day 7
[22] = MDCK, CPE, Table 2, read-out: IC50

Cc1cc(=O)oc2c1ccc1oc(C(=O)c3ccccc3)c(-c3ccc(F)cc3)c12 [Compound 134]
IC50 [1, 18]: 10 to 999 nM
SI, selectivity index = CC50/EC50 [2]: >3095.975
EC50 [2]: 0.0323 µM
CC50 [3]: > 100 µM
inhibition at 0.1 µM [4, 19]: 61%
inhibition at 0.1 µM [4, 20]: 91%
inhibition at 0.1 µM [4, 21]: 96%

Cc1cc(=O)oc2c1ccc1oc(C(=O)c3cccc(O)c3)c(-c3ccccc3)c12 [Compound 33]
IC50 [1, 18]: 10 to 999 nM
SI, selectivity index = CC50/EC50 [2]: 235.972
EC50 [2]: 0.396 µM
CC50 [3]: 93.4 µM
inhibition at 0.1 µM [4, 19]: 5%
inhibition at 0.1 µM [4, 20]: 98%
inhibition at 0.1 µM [4, 21]: 99.5%

NC12CC3CC(CC(C3)C1)C2 [Amantadine]
IC50 [1, 22]: > 25000 nM
IC50 [5]: 382 ± 238 nM
IC50 [6]: > 25000 nM
IC50 [7]: 980 ± 147 nM
IC50 [8]: > 25000 nM
IC50 [9]: > 25000 nM
IC50 [10]: > 25000 nM
IC50 ([11]; RD): > 25000 nM
IC50 [12]: > 25000 nM
IC50 ([13]; RD): > 25000 nM

Cc1cc(=O)oc2c1ccc1oc(C(=O)c3ccccc3)c(-c3ccccc3)c12 [Compound 1, 8-benzoyl-4-methyl-9-phenyl-furo[2,3-h]chromen-2-one]
IC50 [1, 18]: 10 to 999 nM
IC50 [1, 22]: 119 ± 43 nM
IC50 [5]: 52 ± 1 nM
IC50 [6]: 57 ± 6 nM
IC50 [7]: 347 ± 188 nM
IC50 [8]: 67 ± 2 nM
IC50 [9]: 102 ± 20 nM
IC50 [10]: 89 ± 14 nM
IC50 ([11]; Enterovirus 71 (4643), RD cells, CPE, read-out: IC50): 2 ± 1 nM
IC50 [12]: 5 ± 1 nM
IC50 ([13]; Human rhinovirus 2, RD cells, CPE, read-out: IC50): 12 ± 1 nM
EC50 [14]: ~500 nM
EC50 [15]: < 500 nM
inhibition at 0.1 µM [4, 19]: 2%
inhibition at 0.1 µM [4, 20]: 82%
inhibition at 0.1 µM [4, 21]: 91%

Cc1cccc(-c2c(C(=O)c3ccccc3)oc3ccc4c(C)cc(=O)oc4c23)c1 [Compound 141]
IC50 [1, 18]: 10 to 999 nM
SI, selectivity index = CC50/EC50 [2]: >25641.03
EC50 [2]: 0.0039 µM
CC50 [3]: > 100 µM
inhibition at 0.1 µM [4, 19]: 19%
inhibition at 0.1 µM [4, 20]: 71%
inhibition at 0.1 µM [4, 21]: 97%

Cc1cn([C@H]2C[C@H](N=[N+]=[N-])[C@@H](CO)O2)c(=O)[nH]c1=O [AZT, zidovudine, reference compound]
inhibition at 0.05 µM [4, 19]: 6%
inhibition at 0.05 µM [4, 20]: 71%
inhibition at 0.05 µM [4, 21]: 88%

Cc1cc(=O)oc2c1ccc1oc(C(=O)c3cccs3)c(-c3ccccc3)c12 [Compound 95]
IC50 [1, 18]: 10 to 999 nM
IC50 [1, 22]: 70 ± 10 nM
IC50 [16]: 90 ± 10 nM
IC50 [17]: 150 ± 10 nM
IC50 [8]: 90 ± 10 nM
IC50 [9]: 90 ± 10 nM
IC50 [10]: 40 ± 10 nM
SI, selectivity index = CC50/EC50 [2]: >1666.666
EC50 [2]: 0.06 µM
CC50 [3]: > 100 µM
inhibition at 0.1 µM [4, 19]: 42%
inhibition at 0.1 µM [4, 20]: 89%
inhibition at 0.1 µM [4, 21]: 99%
